Experimental data: US5424308A, “Condensed pyrazole 3-oxo-propanenitrile derivatives” (Farmitalia Carlo Erba S.r.l., priority 1988, dated 1995)

Assays:
TU-5 tumor cells = assay: Macrophage cytotoxic activity towards TU-5 tumor cells (peritoneal macrophages of i.p. treated mice, MTT); assay type: cell-based; settings: Effector:Target 5:1; 10 mg/kg/i.p.; 7 days before cell collection; 48 hours incubation
Protocol: The experimental procedure to evaluate this activity is as follows: groups of 4 mice are treated i.p. with the tested compounds and then, seven days later, peritoneal cells are collected and plated for 2 hours at 37° C. After this period the walls are washed to eliminate the non adherent cells, tumor target cells are then added and the incubation prolonged for 48 hours. At the end of this period the target cells viability is evaluated by the MTT colorimetric method (Abstracts of VIII European Immunology Meeting, Zagreb, 1987, pag 94 n°2105) based on the optical density (OD) evaluation at 570 nm.
Percent specific cytotoxicity (%C) is calculated as % inhibition of TU-5 tumor cells (Immunology, 1984, 166, 251) growth using the following formula: [formula]
The following Table I summarizes the immunostimulating activity data of some representative compounds of the invention, obtained according to hereabove experimental procedure, towards TU-5 tumor cells.

Pseudomonas aeruginosa = Pseudomonas aeruginosa infection in Cyclophosphamide immunosuppressed mice; assay type: in vivo; settings: for % survival: 10 mg/kg/i.p., 8 LD50 intravenously, 10 days after bacterial challenge; for effectiveness against Pseudomonas aeruginosa infection: Cyclophosphamide immunosuppressed mice, in words
Protocol: The experimental procedure to evaluate this activity is as follows: mice are immunosuppressed 4 days before the bacterial challenge by a single dose of 200 mg/kg of Cyclophosphamide given intraperitoneally. Tested compounds are administered i.p. on days +1 and +3 relative to Cyclophosphamide administration. Clinically isolated Pseudomonas aeruginosa is administered intravenously in amount of 8 LD50. Host resistance to infection is estimated by the number of mice surviving 10 days after the bacterial challenge.

## N#CC(C(=O)Nc1ccccc1)C(=O)c1nn(-c2ccccc2)c2c1sc1ccccc12 (stereo not drawn) [FCE 26047, 2-cyano-3-oxo-3-(1-phenyl-1H-benzothieno[3,2-c]pyrazol-3-yl)-N-phenyl-propanamide]
TU-5 tumor cells
  Macrophage cytotoxic activity (% inhibition of TU-5 growth): 82%
Pseudomonas aeruginosa
  % survival: 70%
  effectiveness against Pseudomonas aeruginosa infection: strongly effective

## N#CC(C(=O)Nc1cccc(Cl)c1)C(=O)c1nn(-c2ccccc2)c2c1Cc1ccccc1-2 (stereo not drawn) [FCE 25651, N-(3-chloro-phenyl)-2-cyano-3-(1,4-dihydro-1-phenyl-indeno[1,2-c]pyrazol-3-yl)-3-oxo-propanamide]
TU-5 tumor cells
  Macrophage cytotoxic activity (% inhibition of TU-5 growth): 79%
Pseudomonas aeruginosa
  % survival: 90%
  effectiveness against Pseudomonas aeruginosa infection: strongly effective

## N#CC(C(=O)Nc1ccccc1)C(=O)c1nn(-c2ccccc2)c2c1Cc1ccccc1-2 (stereo not drawn) [FCE 25276, 2-cyano-3-(1,4-dihydro-1-phenyl-indeno[1,2-c]pyrazol-3-yl) -3-oxo-N-phenyl-propanamide]
TU-5 tumor cells
  Macrophage cytotoxic activity (% inhibition of TU-5 growth): 93%
Pseudomonas aeruginosa
  % survival: 90%
  effectiveness against Pseudomonas aeruginosa infection: strongly effective

## N#CC(C(=O)Nc1ccc(F)cc1)C(=O)c1nn(-c2ccccc2)c2c1Cc1ccccc1-2 (stereo not drawn) [FCE 25648, 2-cyano-N-(4-fluoro-phenyl)-3-(1,4-dihydro-1-phenyl-indeno[1,2-c]pyrazol-3-yl)-3-oxo-propanamide]
TU-5 tumor cells
  Macrophage cytotoxic activity (% inhibition of TU-5 growth): 77%
Pseudomonas aeruginosa
  % survival: 90%
  effectiveness against Pseudomonas aeruginosa infection: strongly effective
